Each block holds one compound with its values, some of them ahead of it.
How the values were obtained:
[1] = tested on: vascular smooth muscle cells; experiment: Proliferation of vascular smooth muscle cells on treatment with the AMPK inhibitor CompC; format: cell-based, Sprague-Dawley white rats; conditions: cells treated with CompC, described as an AMPK inhibitor
[2] = tested on: cyclin D; experiment: Expression of cyclin D in vascular smooth muscle cells (Western blot); format: cell-based, Sprague-Dawley white rats; conditions: 50 μg of scoparone for 2, 4, 6, 12 and 24 hr
Protocol: (§1) Cultured vascular muscle cells were plated in a 60-mm tissue culture dish at a confluence of about 80-90%, and then cultured in 0.5% FBS containing medium for 24 hours to allow the cells to enter the stationary phase. The cultured cells were divided into a control group not treated with scoparone, and five test groups which were treated with 50 μg of scoparone for 2 hr, 4 hr, 6 hr, 12 hr and 24 hr, respectively. From each of the groups, the total protein was isolated using RIPA buffer. Each of the isolated total proteins was boiled in buffer for 5 minutes, and then cooled on ice. Then, each total protein was separated according to size by electrophoresis on sodium dodecyl sulfate polyacrylamide gel. Then, each total protein was transferred to a PVDF membrane which was then allowed to react with antibodies for p53, p27, p21 and Cyclin D to examine the expression of the proteins.

[3] = high-cholesterol rabbit model; cited from earlier work
[4] = tested on: AP-1; experiment: DNA-binding activity of AP-1 (electrophoretic mobility shift assay); format: cell-based, Sprague-Dawley white rats; conditions: 10 ng TNF-α; scoparone 0, 10, 20, 50 and 100 μM; 24 hours; EMSA
Protocol: (§2) Proteins such as cell cycle regulatory proteins or chemokine are regulated by the respective transcription factors. Accordingly, the DNA-binding activities of AP-1 that is a transcription factor regulating the expression of cell cycle regulatory proteins, and NF-κB that is a transcription factor regulating the expression of chemokine were analyzed using an electrophoretic mobility shift assay (EMSA).
(§3) Vascular smooth muscle cells were cultured in 0.5% FBS-containing medium for 24 hours. The cultured cells were divided into a control group treated with neither scoparone nor tumor necrosis factor (TNF-α, and five test groups which were treated with media containing 10 ng of tumor necrosis factor (TNF-α) for 24 hours at scoparone concentrations of 0 μM, 10 μM, 20 μM, 50 μM and 100 μM, respectively. Nuclear extracts were isolated from the vascular smooth muscle cells and labeled with radioisotope-labeled probes for AP-1 and NF-κB. Then, the labeled extracts were subjected to a protein-DNA reaction at room temperature for 20 minutes. After completion of the reaction, each sample was loaded on a 4% native polyarylamide gel and electrophoresed at 150 volt for 2 hours, followed by analysis.

[5] = tested on: p27; experiment: Expression of p27 in vascular smooth muscle cells (Western blot); format: cell-based, Sprague-Dawley white rats
Protocol: as §1

[6] = tested on: ROS; experiment: ROS production in vascular smooth muscle cells (DCF-DA fluorescence microscopy); format: cell-based, Sprague-Dawley white rats; conditions: TNF-α-containing media, scoparone 100 μM and 200 μM, 1 hour
Protocol: When vascular smooth muscle cells were grown to a confluence of about 90% in a 6-well cell culture dish, the cells were cultured in 0.5% FBS DMEM medium for 24 hours. The cultured cells were divided into a control group treated with neither tumor necrosis factor (TNF-α nor scoparone, and three test groups which were treated with scoparone in tumor necrosis factor (TNF-α)-containing media at scoparone concentrations of 0 μM, 100 μM and 200 μM, respectively. The cells of each group were incubated for 1 hour, and then 40 μmol/L of 2′,7′-dichlorofluorecin diacetate (DCF-DA; Invitrogen), a fluorescent probe sensitive to ROS, was added thereto, and the cells were incubated for 30 minutes. The production of ROS in the cells was analyzed using an AxioCam MRc5 Carl Zeiss fluorescence microscope (Thornwood, N.Y.) which was excited at a 488-nm wavelength and emitted at 515-nm wavelength.

[7] = tested on: Erk; experiment: Phosphorylation of Erk in vascular smooth muscle cells (Western blot); format: cell-based, Sprague-Dawley white rats; conditions: 50 μg of scoparone for 15, 30, 45, 60 and 90 min
Protocol: (§4) In order to examine the signaling pathway of scoparone, the phosphorylation of JNK and Erk was examined.
(§5) Cultured vascular smooth muscle cells were plated in a 60-mm tissue culture dish at a confluence of 80-90%, and then cultured in 0.5% FBS-containing medium for 24 hours to allow the cells to enter the stationary phase. The cultured cells were divided into a control group not treated with scoparone, and five test groups which were treated with 50 μg of scoparone for 15 min, 30 min, 45 min, 60 min and 90 min, respectively. From each of the groups, the total protein was isolated using RIPA buffer. Each of the isolated total proteins was boiled in buffer for 5 minutes, and then cooled on ice. Then, each total protein was separated according to size by electrophoresis on sodium dodecyl sulfate polyacrylamide gel. Then, each total protein was transferred to a PVDF membrane which was then allowed to react with antibodies for pJNK, JNK, pErk and Erk to examine the expression and phosphorylation of the proteins.

[8] = tested on: p21; experiment: Expression of p21 in vascular smooth muscle cells (Western blot); format: cell-based, Sprague-Dawley white rats
Protocol: as §1

[9] = tested on: human peripheral monocytes; conditions: cited from earlier work
[10] = tested on: AMPK; experiment: Phosphorylation of AMPK in vascular smooth muscle cells (Western blot); format: cell-based, Sprague-Dawley white rats; conditions: 50 μg of scoparone for 1, 2, 4, 6 and 12 hr
Protocol: (§6) Cultured vascular smooth muscle cells were plated in a 60-mm tissue culture dish at a confluence of about 80-90%, and then cultured in 0.5% FBS-containing medium for 24 hours to allow the cells to enter the stationary phase. The cultured cells were divided into a control group not treated with scoparone, and five test groups which were treated with 50 μg of scoparone for 1 hr, 2 hr, 4 hr, 6 hr and 12 hr, respectively. From each of the groups, the total protein was isolated using RIPA buffer. Each of the isolated total proteins was boiled in buffer for 5 minutes, and then cooled on ice. Then, each total protein was separated according to size by electrophoresis on sodium dodecyl sulfate polyacrylamide. Then, each total protein was transferred to a PVDF membrane which was then allowed to react with monoclonal antibodies for pACC, pAMPK and AMPK to examine the expression and phosphorylation of the proteins.

[11] = tested on: NF-κB; experiment: DNA-binding activity of NF-κB (electrophoretic mobility shift assay); format: cell-based, Sprague-Dawley white rats; conditions: 10 ng TNF-α; scoparone 0, 10, 20, 50 and 100 μM; 24 hours; EMSA
Protocol: as §2, §3

[12] = tested on: JNK; experiment: Phosphorylation of JNK in vascular smooth muscle cells (Western blot); format: cell-based, Sprague-Dawley white rats; conditions: 50 μg of scoparone for 15, 30, 45, 60 and 90 min
Protocol: as §4, §5

[13] = tested on: VCAM-1; experiment: Expression of VCAM-1 in vascular smooth muscle cells (Western blot); format: cell-based, Sprague-Dawley white rats; conditions: TNF-α-containing media; scoparone 0, 10, 20, 50 and 100 μM; 24 hours
Protocol: Cultured vascular smooth muscle cells were plated in a 60-mm tissue culture dish at a confluence of about 80-90%, and then cultured in 0.5% FBS-containing medium for 24 hours to allow the cells to enter the stationary phase. The cultured cells were divided into a control group treated with neither scoparone nor tumor necrosis factor (TNF-α, and five test groups which were treated with scoparone in tumor necrosis factor (TNF-α)-containing media for 24 hours at scoparone concentrations of 0 μM, 10 μM, 20 μM, 50 μM and 100 μM, respectively. In addition, the cells were divided into five groups which were treated with 50 μg of scoparone for 15 min, 30 min, 45 min, 60 min and 90 min, respectively. From each of the groups, the total protein was isolated using RIPA buffer. Each of the isolated total protein was boiled in buffer for 5 minutes, and then cooled on ice. Then, each total protein was separated according to size by electrophoresis on sodium dodecyl sulfate polyacrylamide gel. Then, each total protein was transferred to a PVDF membrane which was then allowed to react with antibodies for VCAM and PAI-1 to examine the expression of the proteins. The membrane was further allowed to react with anti-actin antibody to examine whether the antibody uses a given amount of the proteins.

[14] = tested on: ACC; experiment: Phosphorylation of ACC in vascular smooth muscle cells (Western blot); format: cell-based, Sprague-Dawley white rats; conditions: 50 μg of scoparone for 1, 2, 4, 6 and 12 hr
Protocol: as §6

[15] = tested on: neointima formation in carotid artery; experiment: Formation of neointima after balloon dilatation (carotid artery, H&E staining); format: in vivo, Sprague-Dawley white rats; conditions: high-fat diet containing 10 mg/kg or 100 mg/kg of scoparone; 2 weeks after balloon dilatation; vs negative control group
Protocol: In order to examine whether scoparone inhibits the formation of neointima after balloon dilatation, an experiment was performed using Sprague-Dawley white rats fed with scoparone-containing feed.
As test subjects, male Sprague-Dawley white rats weighing about 300 g were used. The rats were grouped into a normal control group, a negative control group fed only with a high-fat diet (20% fat and 0.05% cholesterol) and a test group fed with a high-fat diet containing 10 mg/kg or 100 mg/kg of scoparone, each group consisting of 4 animals, and were kept at 22° C. under a 12-hr light/12-hr dark cycle. The negative control group and the test group were fed with the above-described diets from 3 days before performing balloon dilatation and were fed with the diets during 2 weeks after balloon dilatation. After 2 weeks, the carotid artery was isolated from the rats and stained with H&E (hematoxylin & eosin) in order to observe the formation of neointima. FIG. 2 is a micrograph (×100) showing the cross-section of the carotid artery of the rats 2 weeks after balloon dilatation.

[16] = tested on: vascular smooth muscle cells; experiment: Inhibition of proliferation of vascular smooth muscle cells (WST cell counting); format: cell-based, Sprague-Dawley white rats; conditions: scoparone 0, 5, 10, 20 or 50 μM, 48 hours, absorbance at 450 nm
Protocol: Vascular smooth muscle cells were isolated from the thoracic aorta of Sprague-Dawley white rats and cultured in a medium containing 20% fetal bovine serum.
The specificity of vascular smooth muscle cells was confirmed by staining the cells with α-actin monoclonal antibody (Sigma, St Louis, Mo., USA). In this experiment, vascular smooth muscle cells subcultured 5-6 times were used. The cultured vascular smooth muscle cells were plated in a 60-mm tissue culture dish at a confluence of about 80-90%, and then cultured in 0.5% FBS DMEM medium for 24 hours to allow the cells to enter the stationary phase.
The primarily cultured vascular smooth muscle cells were cultured in a 96-well culture dish, and when the cells reached a confluence of 40%, the medium was replaced with 0.5% FBS-containing medium, and the cells were cultured for 24 hours to allow the cells to enter the stationary phase.

[17] = tested on: p53; experiment: Expression of p53 in vascular smooth muscle cells (Western blot); format: cell-based, Sprague-Dawley white rats
Protocol: as §1

[18] = 50 μg of scoparone for 2, 4, 6, 12 and 24 hr

Compound: c1cc(-c2cnn3cc(-c4ccc(OCCN5CCCCC5)cc4)cnc23)ccn1 [CompC]
proliferation of the vascular smooth muscle cells [1]: restored again

DNA binding activity of AP-1 [4]: concentration-dependently decreased
DNA binding activity of NF-κB [11]: concentration-dependently decreased
Compound: COc1cc2ccc(=O)oc2cc1OC [scoparone, 6,7-dimethoxycoumarin]
expression level of cyclin D [2]: decreased
cholesterol levels [3]: lowered
triglyceride levels [3]: lowered
time of highest expression level of p27 after treatment ([5]; 50 μg of scoparone): 24 h
expression of p27 [5, 18]: time-dependently increased
expression of ROS [6]: decreased
time of highest phosphorylation of Erk after treatment [7]: 45 min
time of highest expression level of p21 after treatment ([8]; 50 μg of scoparone): 24 h
expression of p21 [8, 18]: time-dependently increased
growth of human peripheral monocytes [9]: inhibits
phosphorylation of AMPK [10]: time-dependently increased
phosphorylation of JNK [12]: gradually increased with the passage of time
expression of VCAM-1 [13]: dose-dependently decreased
phosphorylation of ACC [14]: time-dependently increased
formation of neointima [15]: decreased compared to that in the negative control group
proliferation of the vascular smooth muscle cells ([16]; with 10 ng/ml TNF-α): decreased in a dose-dependent manner
proliferation of the vascular smooth muscle cells ([16]; with 20 ng/ml PDGF): decreased in a dose-dependent manner
time of highest expression level of p53 after treatment ([17]; 50 μg of scoparone): 2 to 4 h
expression of p53 [17, 18]: time-dependently increased

Source: US20110015410A1, “NOVEL USE OF SCOPARONE” (Kyungpook National University Industry Academic Cooperation …, priority 2007, published 2011)
